Measurements as given in ChEMBL document CHEMBL1131721, “Adenosine-5'-carboxylic acid peptidyl derivatives as inhibitors of protein kinases” (Bioorg Med Chem Lett, 1999).
Residues, ends and D or L forms follow the SMILES beside them. *: point of attachment. X1 = Nc1ncnc2c1ncn2C1O[C@H](C(=O)*)[C@@H](O)[C@H]1O; Ahx = NCCCCCC(=O)O

Experiments:
[1] = Inhibition of Casein kinase 2 from rat liver at 100 uM (No inhibition)
CaM kinase I alpha = target: T1, CaM kinase I alpha (Zea mays, UniProt O04417); experiment: Inhibition of Calcium-dependent protein kinase 1 (CDPK-1) from maize seedlings
T1 sequence (O04417 whole entry): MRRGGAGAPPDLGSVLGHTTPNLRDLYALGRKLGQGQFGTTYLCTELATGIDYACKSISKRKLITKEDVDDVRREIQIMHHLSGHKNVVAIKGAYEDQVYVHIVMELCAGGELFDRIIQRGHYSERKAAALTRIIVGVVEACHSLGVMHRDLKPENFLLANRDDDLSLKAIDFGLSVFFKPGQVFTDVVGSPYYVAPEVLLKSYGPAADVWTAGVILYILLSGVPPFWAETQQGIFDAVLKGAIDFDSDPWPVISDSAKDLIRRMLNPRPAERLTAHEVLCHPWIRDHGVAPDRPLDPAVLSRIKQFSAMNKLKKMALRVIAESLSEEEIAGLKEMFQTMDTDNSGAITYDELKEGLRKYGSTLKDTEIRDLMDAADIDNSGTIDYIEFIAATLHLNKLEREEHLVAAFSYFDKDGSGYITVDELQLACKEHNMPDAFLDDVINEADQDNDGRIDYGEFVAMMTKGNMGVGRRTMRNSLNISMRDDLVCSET

[2] = Inhibition of murine Protein kinase A at 100 uM (No inhibition); set-up: species or system Mus musculus
[3] = Inhibition of Casein kinase 1 from rat liver
[4] = Inhibition of Casein kinase 2 from rat liver
[5] = Inhibition of murine Protein kinase A; set-up: species or system Mus musculus

Compound: NC(N)=NCCC[C@@H](N)C(=O)N[C@H](CCCN=C(N)N)C(=O)N[C@H](CCCN=C(N)N)C(=O)N[C@H](CCCN=C(N)N)C(=O)N[C@H](CCCN=C(N)N)C(=O)N[C@H](CCCN=C(N)N)C(=O)O
- IC50 [1]: Not Active
- IC50 (CaM kinase I alpha): > 50 µM
- IC50 [2]: Not Active
- IC50 [3]: > 100 µM

Compound: N=C(N)NCCC[C@@H](NC(=O)[C@@H](CCCNC(=N)N)NC(=O)CCCCCNC(=O)[C@H]1OC(n2cnc3c(N)ncnc32)[C@H](O)[C@@H]1O)C(=O)O (stereo partly specified)
- IC50 (CaM kinase I alpha): 35 µM

Compound: N=C(N)NCCC[C@H](NC(=O)[C@H](CCCNC(=N)N)NC(=O)[C@H](CCCNC(=N)N)NC(=O)[C@H](CCCNC(=N)N)NC(=O)[C@H](CCCNC(=N)N)NC(=O)[C@H](CCCNC(=N)N)NC(=O)CCCCCNC(=O)[C@H]1OC(n2cnc3c(N)ncnc32)[C@H](O)[C@@H]1O)C(=O)O (stereo partly specified)
- IC50 (CaM kinase I alpha): 1.2 µM
- IC50 ([4]; read-out: IC50): > 30 µM
- IC50 [5]: 0.12 µM
- IC50 [3]: > 30 µM

Compound: C[C@H](NC(=O)CCNC(=O)CCNC(=O)[C@H]1OC(n2cnc3c(N)ncnc32)[C@H](O)[C@@H]1O)C(=O)N[C@@H](CCCNC(=N)N)C(=O)N[C@@H](CCCNC(=N)N)C(=O)N[C@@H](CCCNC(=N)N)C(=O)N[C@@H](CCCNC(=N)N)C(=O)N[C@@H](CCCNC(=N)N)C(=O)N[C@@H](CCCNC(=N)N)C(=O)O (stereo partly specified)
- IC50 (CaM kinase I alpha): 16 µM
- IC50 [4]: ≥ 30 µM
- IC50 [5]: 4.3 µM
- IC50 [3]: > 100 µM

Compound: N=C(N)NCCC[C@H](NC(=O)[C@H](CCCNC(=N)N)NC(=O)[C@H](CCCNC(=N)N)NC(=O)[C@H](CCCNC(=N)N)NC(=O)[C@H](CCCNC(=N)N)NC(=O)[C@H](CCCNC(=N)N)NC(=O)CCCCCCCNC(=O)[C@H]1OC(n2cnc3c(N)ncnc32)[C@H](O)[C@@H]1O)C(=O)O (stereo partly specified)
- IC50 (CaM kinase I alpha): 3.2 µM
- IC50 ([4]; read-out: IC50): > 30 µM
- IC50 [5]: 0.24 µM
- IC50 [3]: > 30 µM

Compound: N=C(N)NCCC[C@H](NC(=O)[C@H](CCCNC(=N)N)NC(=O)[C@H](CCCNC(=N)N)NC(=O)[C@H](CCCNC(=N)N)NC(=O)[C@H](CCCNC(=N)N)NC(=O)[C@H](CCCNC(=N)N)NC(=O)CCCCCCCCCCNC(=O)[C@H]1OC(n2cnc3c(N)ncnc32)[C@H](O)[C@@H]1O)C(=O)O (stereo partly specified)
- IC50 [1]: Not Active
- IC50 (CaM kinase I alpha): 4.9 µM
- IC50 [5]: 0.33 µM
- IC50 [3]: > 30 µM

Compound: N=C(N)NCCC[C@H](NC(=O)[C@H](CCCNC(=N)N)NC(=O)[C@H](CCCNC(=N)N)NC(=O)[C@H](CCCNC(=N)N)NC(=O)[C@H](CCCNC(=N)N)NC(=O)[C@H](CCCNC(=N)N)NC(=O)CCNC(=O)[C@H]1OC(n2cnc3c(N)ncnc32)[C@H](O)[C@@H]1O)C(=O)O (stereo partly specified)
- IC50 (CaM kinase I alpha): 38 µM
- IC50 [4]: Not Active
- IC50 [5]: 1.8 µM
- IC50 [3]: > 30 µM

Compound: N=C(N)NCCC[C@H](NC(=O)[C@H](CCCNC(=N)N)NC(=O)[C@H](CCCNC(=N)N)NC(=O)[C@H](CCCNC(=N)N)NC(=O)[C@H](CCCNC(=N)N)NC(=O)[C@H](CCCNC(=N)N)NC(=O)CNC(=O)[C@H]1OC(n2cnc3c(N)ncnc32)[C@H](O)[C@@H]1O)C(=O)O (stereo partly specified)
- IC50 (CaM kinase I alpha): 67 µM
- IC50 ([4]; read-out: IC50): > 30 µM
- IC50 [5]: 4 µM
- IC50 [3]: > 30 µM

Compound: N=C(N)NCCC[C@H](NC(=O)[C@H](CCCNC(=N)N)NC(=O)[C@H](CCCNC(=N)N)NC(=O)[C@H](CCCNC(=N)N)NC(=O)[C@H](CCCNC(=N)N)NC(=O)[C@H](CCCNC(=N)N)NC(=O)CCCNC(=O)[C@H]1OC(n2cnc3c(N)ncnc32)[C@H](O)[C@@H]1O)C(=O)O (stereo partly specified)
- IC50 (CaM kinase I alpha): 19 µM
- IC50 ([4]; read-out: IC50): > 30 µM
- IC50 [5]: 1.3 µM
- IC50 [3]: > 30 µM

Compound: C[C@H](NC(=O)C[C@H](NC(=O)C[C@H](NC(=O)[C@H]1O[C@@H](n2cnc3c(N)ncnc32)[C@H](O)[C@@H]1O)C(=O)O)C(=O)O)C(=O)N[C@@H](CCCNC(=N)N)C(=O)N[C@@H](CCCNC(=N)N)C(=O)N[C@@H](CCCNC(=N)N)C(=O)N[C@@H](CCCNC(=N)N)C(=O)N[C@@H](CCCNC(=N)N)C(=O)N[C@@H](CCCNC(=N)N)C(=O)O
- IC50 (CaM kinase I alpha): > 50 µM
- IC50 ([4]; read-out: IC50): > 30 µM
- IC50 [5]: 11.1 µM
- IC50 [3]: > 30 µM

Compound: CC(=O)NCCCCCC(=O)N[C@@H](CCCN=C(N)N)C(=O)N[C@@H](CCCNC(=N)N)C(=O)N[C@@H](CCCNC(=N)N)C(=O)N[C@@H](CCCNC(=N)N)C(=O)N[C@@H](CCCNC(=N)N)C(=O)N[C@@H](CCCN=C(N)N)C(=O)O (stereo in doubt)
- IC50 [1]: Not Active
- IC50 (CaM kinase I alpha): > 50 µM
- IC50 [5]: > 100 µM
- IC50 [3]: > 100 µM

Compound: N=C(N)NCCC[C@H](NC(=O)[C@H](CCCNC(=N)N)NC(=O)[C@H](CCCNC(=N)N)NC(=O)[C@H](CCCNC(=N)N)NC(=O)CCCCCNC(=O)[C@H]1OC(n2cnc3c(N)ncnc32)[C@H](O)[C@@H]1O)C(=O)O (stereo partly specified) ({X1-Ahx}-RRRR-OH)
- IC50 (CaM kinase I alpha): 52 µM

Compound: Nc1ncnc2c1ncn2[C@@H]1O[C@H](CO)[C@@H](O)[C@H]1O [ADENOSINE]
- IC50 (CaM kinase I alpha): 116 µM
- IC50 ([4]; read-out: IC50): > 300 µM
- IC50 [5]: 141 µM
- IC50 [3]: 126 µM
